Assay results: patent US12351574B2, “Selective ligands for modulation of GIRK channels” (Northeastern University, priority 2018, dated 2025)

Target: T1, GIRK1/2(IV-VT) (UniProt P48542+P48549, I97V/V99T)
T1 construct: expressed in transfected cells; host or cells: Xenopus laevis oocytes (cRNA injection)
T1 sequence (P48549 1-501): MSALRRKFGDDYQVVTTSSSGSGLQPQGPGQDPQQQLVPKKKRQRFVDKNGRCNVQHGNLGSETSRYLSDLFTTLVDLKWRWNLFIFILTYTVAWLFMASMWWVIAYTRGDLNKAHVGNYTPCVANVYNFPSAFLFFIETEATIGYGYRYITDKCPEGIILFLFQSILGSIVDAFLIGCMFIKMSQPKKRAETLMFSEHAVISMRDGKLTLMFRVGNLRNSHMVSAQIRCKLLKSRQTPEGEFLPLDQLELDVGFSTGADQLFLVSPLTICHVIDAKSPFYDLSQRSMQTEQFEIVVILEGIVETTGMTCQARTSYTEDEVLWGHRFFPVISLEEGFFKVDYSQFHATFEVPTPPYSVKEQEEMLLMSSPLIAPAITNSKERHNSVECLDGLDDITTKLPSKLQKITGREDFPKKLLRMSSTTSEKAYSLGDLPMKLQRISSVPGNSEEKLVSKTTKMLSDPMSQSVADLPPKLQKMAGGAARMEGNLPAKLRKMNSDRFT
T1 sequence (P48542 1-425 I97V/V99T): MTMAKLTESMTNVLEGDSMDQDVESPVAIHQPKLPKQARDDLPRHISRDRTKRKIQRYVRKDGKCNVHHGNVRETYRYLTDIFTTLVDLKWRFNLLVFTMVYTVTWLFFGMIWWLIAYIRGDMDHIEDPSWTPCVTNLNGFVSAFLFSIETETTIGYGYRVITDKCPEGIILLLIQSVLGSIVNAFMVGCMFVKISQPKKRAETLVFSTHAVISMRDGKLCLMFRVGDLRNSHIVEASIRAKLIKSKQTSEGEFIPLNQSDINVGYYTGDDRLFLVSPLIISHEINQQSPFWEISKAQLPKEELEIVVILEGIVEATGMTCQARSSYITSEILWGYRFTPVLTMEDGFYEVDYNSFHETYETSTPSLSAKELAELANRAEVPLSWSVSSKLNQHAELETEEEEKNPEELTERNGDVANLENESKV
Test: TEVC in Xenopus oocytes, double mutant GIRK1/2(IV-VT)
Assay type: cell-based, human GIRK1, mouse GIRK2
Conditions: GIRK1/2(IV-VT) double mutant
From the text: Molecular biology: For Xenopus oocyte expression, human GIRK1 and human GIRK4 cDNAs were subcloned into pGEMHE. For mammalian expression, human GIRK1 and human GIRK4 cDNAs were subcloned into pcDNA3 and pcDNA3.1/V5-His B, respectively (Invitrogen). Mouse GIRK2 cDNA was subcloned in the dual-function vector, pXoom. Point mutations were introduced using a standard Pfu-based mutagenesis technique according to the QuikChange protocol (Agilent). Mutations were verified by sequencing.
Electrophysiology of oocytes: Whole-oocyte currents were measured by conventional two-electrode voltage clamp (TEVC) with a GeneClamp 500 amplifier (Axon Instruments). Agarose cushion microelectrodes were filled with 1.5% (w/v) agarose in 3 M KCl and were used with resistances between 0.1 and 1.5 megaohms. […] Barium-sensitive basal currents from both groups, 1) Vehicle, 2) single concentration at 10 μM and 3) multiple concentrations of ML297 or GAT compounds in the presence of HK solution, were assessed at −80 mV using TEVC. Barium-sensitive currents were normalized to average basal current in the vehicle solutions. The HK solution contained the following: 96 mM KCl, 1 mM NaCl, 1 mM MgCl2, 5 mM KOH/HEPES, pH 7.4. The barium solution consisted of HK+10 mM BaCl2. Five to ten oocytes from the same batch (same frog) were recorded for each group, and the experiments were repeated in at least four batches. Data acquisition and analysis were carried out using pClamp9 (Molecular Devices) and OriginPro (Microcal) software.
To test these computational predictions, the inventors mutated each or both of the two M1 key wild-type GIRK4 subunit residues to the corresponding GIRK2 residues (GIRK4-V92I, GIRK4-T94V, GIRK4-V92I/T94V or GIRK4-dm) and vice-versa the GIRK2 residues to the corresponding GIRK4 ones (GIRK2-I97V, GIRK2-V99T, GIRK2-I97V/V99T or GIRK2-dm) (FIG. 35). […]

Cc1cc(NC(=O)Nc2ccc(Br)s2)n(-c2ccccc2)n1 [GAT1508, 1-(5-bromothiophen-2-yl)-3-(3-methyl-1-phenyl-1H-pyrazol-5-yl)urea]
EC50: 0.94 ± 0.15 µM | EMAX: 1.68±0.04 | Emax (read-out: EMAX, % of the control GIRK1/2): 72%
